# Results published in patent publication US7531544B2, “Xanthine phosphodiesterase V inhibitors” (Schering Corporation, priority 2000, dated 2009).
# Target: PDE V (Homo sapiens, UniProt O76074)
# Assay: PDE V enzyme inhibition (PDE V IC50)
# Assay type: biochemical
row,IC50 [nM],Compound
1,15 to 100,COc1ccc(Cn2c(NC3CCCC3CO)nc3c2c(=O)n(C)c(=O)n3C)cc1 (centres unmarked) [Compound 13]
2,5 to 10,COc1ccc(Cn2c(N[C@@H]3CCc4ccccc43)nc3c2c(=O)n(C)c(=O)n3C)cc1 [Compound 95]
